Source: patent US20040023841A1, “Combinatorial method for rapid screening of drug delivery formulations” (priority 2003, published 2004)

How the values were obtained:
[1] = Loss of drug from donor hole of Teflon disc placed on stratum corneum; type: in vitro ADME; details: drug in PBS, 2 mm hole, human SC, 24 hours contact, liquid scintillation counting
Method: (§1) The following experiments were performed to assess the usefulness of a method, which determines the loss of a test substance from a formulation over time. Experiments were performed to assess whether this method can be used for estimation of skin permeability to drugs. For these studies, phosphate buffered saline was used as a model formulation. […] Ten holes were drilled into the disc and each hole was about 2 mm wide. The disc was then placed on the SC prepared from human skin. Solutions of nine different drugs in PBS were placed in various holes. The concentration of drugs in the solutions were measured at time zero. The drugs were allowed to remain in contact with the skin for 24 hours. Samples were taken from the holes at the end of 24 hours and then analyzed using a liquid scintillation counter. The amount of drug lost from the donor hole was calculated. Permeability measurements of the same drugs were performed using conventional methods that use macroscopic diffusion cells.

[2] = Permeability measured by traditional experiments (macroscopic diffusion cells); type: in vitro ADME
Method: as §1

[3] = Conductivity enhancement of skin, 10x10 High Throughput array; type: in vitro ADME, pig; details: 10x10 array, 0-2% (w/v) in PBS, up to 25 hrs, n=4
Method: This array is built as a pattern of 10×10 matrix. This corresponds to 100 test wells, each well 3 mm in diameter. The formulations to be tested are filled in the donor compartments. Each formulation is filled in 4 wells and each well can hold about 85 μL of the test formulation. Two 22 G 1½ needles are used as electrodes to measure current across the skin. One needle is stuck into the dermis and acts as the common electrode while the other needle is sequentially placed in each well to measure current. Current measurements are made across the skin periodically over a span of 25 hrs. […] The conductivity enhancement for a given formulation at time ‘t’ is then calculated as [formula] where It is the current across the skin at time ‘t’ and I0 is the current across the skin at time 0. […] The error bars correspond to the standard deviations. (n=4).

[4] = Transport enhancement of radiolabelled mannitol into skin, 10x10 High Throughput array; type: in vitro ADME, pig; details: 10x10 array, 0-2% (w/v) in PBS, 7 hrs
Method: Radiolabelled mannitol was added to all formulations prepared in PBS at a concentration of 10 μCi/mL. The donor compartments were filled with these formulations with each formulation filled in 4 wells. The skin was then incubated for 7 hrs. The solutions from the donor compartment were removed at the end of incubation period. The skin was then gently rinsed to free any mannitol that could be sticking to the surface of the skin. The skin was then cut and dissolved in 0.5 M Solvable, a tissue and gel solubilizer from Packard Chemicals, at 60° C. overnight. […] The transport enhancement at different test formulations is then calculated as [formula] where CF is the radiation count for a particular test formulation and CC is the radiation count for the control i.e. PBS alone without any enhancer.

[5] = Conductivity enhancement of skin, 5x5 High Throughput array; type: in vitro ADME, pig; details: 5x5 array, 0-2% (w/v) in PBS, up to 25 hrs
From the text: This array is built as a pattern of a 5×5 matrix. This corresponds to 25 test wells, each well 7.5 mm in diameter. It consists of two polycarbonate plates each 0.5 inches thick. The top plate (donor plate) has 25 through holes (wells), diameter 7.5 mm, drilled in it, each of which acts as an isolated donor chamber similar to the donor chamber in the Franz diffusion cells. The bottom plate (receiver plate) also has holes (wells) drilled in a similar pattern as the donor plate and simulates the receiver compartment of the diffusion cells. All wells are isolated from each other for all practical purposes and each well acts like an individual diffusion cell. The skin is placed between the donor and receiver plate and the plate assembly is clamped using four screws as shown in the figure.
Screening of the formulations is performed using pigskin. The wells in the receiver plate are filled with PBS. The skin is placed on the receiver plate with the stratum corneum (SC) facing the donor plate. The donor plate is then placed on the skin and the entire assembly is clamped tightly using four screws. […]
The formulations to be tested are filled in the donor compartments. […] The current, measured at 100 Hz and 143 mVpp, varied between 1 μA at time 0 to 25-30 μA at time 25 hrs.
The conductivity enhancements at time t″ is then calculated as [formula] […]

[6] = Transport enhancement of radiolabelled mannitol into skin, 5x5 High Throughput array; type: in vitro ADME, pig; details: 5x5 array, 0-2% (w/v) in PBS, 7 hrs
Method: Screening of the formulations is performed using pigskin. The wells in the receiver plate are filled with PBS. The skin is placed on the receiver plate with the stratum corneum (SC) facing the donor plate. The donor plate is then placed on the skin and the entire assembly is clamped tightly using four screws. A mild vacuum is then applied to remove any excess PBS that may be pushed in to the wells in the receiver plate. Radiolabelled mannitol was added to all formulations prepared in PBS at a concentration of 10 μCi/mL. The donor compartments were filled with these formulations each formulation was filled in 1 well. The skin was then incubated for 7 hrs. The solutions from the donor compartment were removed at the end of incubation period. The skin was then gently rinsed to free any mannitol that could be sticking to the surface of the skin. The skin was then cut and dissolved in 0.5 M Solvable, a tissue and gel solubilizer from Packard Chemicals at 60° C. overnight. […] The transport enhancement at different test formulations is then calculated as [formula] where CF is the radiation count for a particular test formulation and CC is the radiation count for the control i.e. PBS alone without any enhancer.

[7] = Conductivity enhancement of skin, Franz diffusion cells; type: in vitro ADME, pig; details: Franz diffusion cell, 0-2% in PBS, 24 hours
Method: A small stir bar and an Ag/AgCl disk electrode ([…] In-vivo Metrics) were added to the receiver chamber. In addition, the receiver chamber was filled with PBS. Pigskin was thawed and was mounted on the diffusion cell with the epidermis side facing up. The donor and the receiver compartments were clamped making sure there were no bubbles in the receiver chamber. Before each experiment, structural integrity of the skin was confirmed by measuring its conductivity. Skin samples with a resistivity less than 20 Kohm-cm^2 were assumed to be defective and not used. Skin conductivity was measured throughout the experiment to assess the effect of the formulation on skin structure. […] Each formulation was prepared in PBS. Current across the skin was measured over a period of 24 hours. The enhancement of skin conductivity was calculated as [formula] where It is the current across skin at time t, I0 being the current across skin at time 0.

[8] = Transport enhancement of radiolabeled mannitol into skin, Franz diffusion cells; type: in vitro ADME, pig; details: Franz diffusion cell, 0-2% (w/v) in PBS, 7 hrs
Method: The skin was incubated in the cells for 7 hrs. At the end of 7 hrs the skin was removed from the cell and dissolved in 0.5M Solvable, a gel and tissue solubilizer from Packard Chemicals, at 60° C. overnight. […] The enhancement of transdermal mannitol transport due to the formulations was calculated using the equation, E^T=CF/CC, where CF is the radiation count for a particular formulation and CC is the radiation count for the control which in this case is simply PBS with radiolabeled mannitol but no surfactant.

Compound	% Drug Lost from the Hole [1] [%]	Papp [2] [×10⁻⁶ cm/s]	further results
C[C@]12CCC(=O)C=C1CC[C@@H]1[C@@H]2[C@@H](O)C[C@]2(C=O)[C@@H](C(=O)CO)CC[C@@H]12 [Aldosterone]	9	0.00833	
CCCCCCO [Hexanol]	31		
c1ccc2ccccc2c1 [Napthalene]	47		
CCCCCCCCCCCCCCCCCCO [Octadecanol]	77	25	
CCCCCCCCO [Octanol]	47	19.4	
CC(=O)[C@H]1CC[C@H]2[C@@H]3CCC4=CC(=O)CC[C@]4(C)[C@H]3CC[C@]12C [Progesterone]	44	5.56	
CCCCCCCCCCCCOS(=O)(=O)[O-].[Na+] [SLS, Sodium Lauryl Sulfate]			Conductivity enhancement (It/I0) [3]: increases with increasing SLS or TDAB concentration and reaches a maximum after which it starts decreasing; Transport enhancement (amount of mannitol transported, CF/CC) [4]: increases monotonously as a function of the surfactant concentration; Conductivity enhancement (It/I0) [5]: increases as a function of the SLS or TDAB concentration and reaches a maximum; Transport enhancement (amount of mannitol transported, CF/CC) [6]: increases monotonously as a function of the surfactant concentration; Conductivity enhancement (It/I0) [7]: increases as a function of the SLS or TDAB concentration and reaches a maximum; Transport enhancement (amount of mannitol transported, CF/CC) [8]: increases monotonously as a function of the surfactant concentration
C[C@]12CC[C@H]3[C@@H](CCC4=CC(=O)CC[C@@]43C)[C@@H]1CC[C@@H]2O [Testosterone]	24		
